Here are results for one compound from patent US5134124A, “Use of a statin derivative in the treatment of eye complaints” (Sanofi, priority 1989, dated 1992).

The test system of assay [1] is intraocular pressure in rabbits. Kind of assay: Effect on the intraocular pressure in rabbits after increase by intravenous injection of a 5% glucose solution. In kind it is in vivo. The conditions noted are these: eye lotion, pressure increased by intravenous injection of a 5% glucose solution.
Assay [2] concerns the target T1, human plasma renin (Homo sapiens, UniProt P00797).
T1 construct: from tissue; host or cells: human plasma
T1 sequence (P00797 67-406): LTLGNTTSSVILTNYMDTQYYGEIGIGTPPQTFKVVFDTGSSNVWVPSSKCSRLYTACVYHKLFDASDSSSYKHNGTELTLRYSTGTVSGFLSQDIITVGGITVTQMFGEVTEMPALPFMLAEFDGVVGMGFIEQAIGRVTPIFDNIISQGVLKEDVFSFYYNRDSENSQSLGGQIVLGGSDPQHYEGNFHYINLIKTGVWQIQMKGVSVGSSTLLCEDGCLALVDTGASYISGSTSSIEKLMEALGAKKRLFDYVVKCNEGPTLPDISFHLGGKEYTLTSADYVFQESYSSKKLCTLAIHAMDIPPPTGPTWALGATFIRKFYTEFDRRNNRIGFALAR
Kind of assay: Inhibition of human plasma renin activity at pH 7.4. It counts as biochemical. The conditions noted are these: method of EP 211 744, read-out: 50% inhibitory concentration (IC50), inhibition of human plasma renin activity. On the procedure: The inhibition of human plasma renin activity at pH 7.4 was measured for this compound (I) according to the method described in patent application EP 211 744.

For `CCC(C)C(NC(=O)CC(O)C(CC1CCCCC1)NC(=O)C(Cc1cnc[nH]1)NC(=O)C(Cc1ccccc1)NC(=O)CCc1cccnc1)C(=O)NC(O)C(C)CO` (centres unmarked) [compound (I), N-(3-pyridylpropionyl)phenylalanylhistidyl(cyclohexyl)statyl-N-(1,3-dihydroxy-2-methylpropyl)isoleucinamide], the “effect on the intraocular pressure” value in assay [1] is recorded as “enables the intraocular pressure to return rapidly to its normal value”. The IC50 in assay [2] was 1 pM.
